Results on 23 molecules are retold here after ChEMBL document CHEMBL1141496, “Biphenylsulfonyl-thiophene-carboxamidine inhibitors of the complement component C1s” (Bioorg Med Chem Lett, 2008).

Converted amounts (≈) assume the structure as drawn.

Series [1] deals with T1, Complement C1s subcomponent (Homo sapiens, UniProt P09871).
T1 sequence (P09871 whole entry): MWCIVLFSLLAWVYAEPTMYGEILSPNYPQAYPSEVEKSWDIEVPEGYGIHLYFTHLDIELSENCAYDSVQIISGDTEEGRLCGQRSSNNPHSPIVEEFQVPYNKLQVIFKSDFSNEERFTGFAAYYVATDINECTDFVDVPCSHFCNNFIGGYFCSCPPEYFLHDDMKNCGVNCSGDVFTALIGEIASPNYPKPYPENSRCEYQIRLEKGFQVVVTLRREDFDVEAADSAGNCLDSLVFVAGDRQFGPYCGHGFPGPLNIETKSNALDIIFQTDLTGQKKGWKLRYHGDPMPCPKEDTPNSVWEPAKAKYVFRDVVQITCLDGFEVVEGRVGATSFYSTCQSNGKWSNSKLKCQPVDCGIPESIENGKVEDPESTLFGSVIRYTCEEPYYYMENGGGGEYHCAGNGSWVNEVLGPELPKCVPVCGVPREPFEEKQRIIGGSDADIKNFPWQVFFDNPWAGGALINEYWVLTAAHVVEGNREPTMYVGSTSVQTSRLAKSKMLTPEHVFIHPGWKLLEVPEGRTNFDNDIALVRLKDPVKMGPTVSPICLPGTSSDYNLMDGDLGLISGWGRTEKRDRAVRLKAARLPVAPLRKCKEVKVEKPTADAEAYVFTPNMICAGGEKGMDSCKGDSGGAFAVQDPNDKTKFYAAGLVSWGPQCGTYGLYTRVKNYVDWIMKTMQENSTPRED
Put plainly: Inhibition of Complement C1s subcomponent.

A further series deals with hERG (KCNH2) (Homo sapiens, UniProt Q12809). Put plainly: Inhibition of human ERG at 10 uM by patch clamp assay.
hERG (KCNH2), sequence (Q12809 whole entry): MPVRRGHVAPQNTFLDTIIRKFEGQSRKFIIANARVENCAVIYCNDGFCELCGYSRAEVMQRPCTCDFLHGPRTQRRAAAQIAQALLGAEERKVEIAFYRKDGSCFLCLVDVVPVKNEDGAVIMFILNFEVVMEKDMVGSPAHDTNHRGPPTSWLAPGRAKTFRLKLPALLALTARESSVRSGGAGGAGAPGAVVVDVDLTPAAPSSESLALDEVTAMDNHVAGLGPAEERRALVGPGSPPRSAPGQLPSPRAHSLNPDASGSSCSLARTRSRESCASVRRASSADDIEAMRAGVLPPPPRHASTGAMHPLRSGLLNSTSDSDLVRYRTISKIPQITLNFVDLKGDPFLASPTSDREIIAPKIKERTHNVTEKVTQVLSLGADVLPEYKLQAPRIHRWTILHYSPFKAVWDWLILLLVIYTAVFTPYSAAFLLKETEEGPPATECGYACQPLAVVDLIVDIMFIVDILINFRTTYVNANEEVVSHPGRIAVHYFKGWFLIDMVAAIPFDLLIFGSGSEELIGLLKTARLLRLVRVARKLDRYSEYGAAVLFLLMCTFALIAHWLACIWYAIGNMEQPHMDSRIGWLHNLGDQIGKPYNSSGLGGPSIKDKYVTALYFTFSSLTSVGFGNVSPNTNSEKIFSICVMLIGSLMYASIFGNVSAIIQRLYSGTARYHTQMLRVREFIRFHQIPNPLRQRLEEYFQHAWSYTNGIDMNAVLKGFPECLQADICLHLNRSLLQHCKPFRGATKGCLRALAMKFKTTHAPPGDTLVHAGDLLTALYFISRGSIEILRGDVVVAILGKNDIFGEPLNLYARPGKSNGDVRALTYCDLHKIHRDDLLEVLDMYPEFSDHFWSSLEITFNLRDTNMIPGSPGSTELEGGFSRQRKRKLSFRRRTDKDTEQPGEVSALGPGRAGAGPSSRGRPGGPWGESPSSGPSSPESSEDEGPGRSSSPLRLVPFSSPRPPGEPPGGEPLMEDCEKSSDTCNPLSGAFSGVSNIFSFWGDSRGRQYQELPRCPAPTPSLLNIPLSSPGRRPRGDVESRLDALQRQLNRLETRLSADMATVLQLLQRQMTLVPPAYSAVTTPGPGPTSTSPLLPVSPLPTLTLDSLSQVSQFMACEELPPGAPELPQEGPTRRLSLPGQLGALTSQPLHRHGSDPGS
A short description of series [2]: Aqueous solubility at physiological pH. The series is classed as physicochemical.
A short description of series [3]: Half life in rat at 2 mg/kg, iv. The series is classed as ADME, organism-based. Also noted: dose 2 mg/kg, route intravenous. To be noted: in vivo.
A short description of series [4]: Clearance in rat at 2 mg/kg, iv. It is filed as ADME, organism-based. Also noted: dose 2 mg/kg, route intravenous. To be noted: in vivo.
Series [5] is described as follows: Volume of distribution in rat at 2 mg/kg, iv. Also noted: dose 2 mg/kg, route intravenous. The conditions noted are these: in vivo. It is filed as ADME, organism-based.

By Ki is commonly meant a measure of affinity in units of concentration, obtained from inhibition or displacement. Read a high Ki as a looser hold on the target. In series [1], `CSc1sc(C(=N)N)cc1S(=O)(=O)c1cccc(-c2c(C)cccc2CO)c1` registered a Ki of 50 nM.
Same read-out and setting: as for `CSc1sc(C(=N)N)cc1S(=O)(=O)c1cccc(-c2ccccc2)c1`, the figure is 260 nM; as for `CSc1sc(C(=N)N)cc1S(=O)(=O)c1cccc(-c2c(C)cccc2N)c1`, 20 nM.
What is called inhibition is the share of the control response that was lost under treatment. On hERG (KCNH2), `CSc1sc(C(=N)N)cc1S(=O)(=O)c1cccc(-c2c(C)cccc2NC(=O)NCCc2nn[nH]n2)c1` returned an inhibition at 10 µM of 1%. For the same molecule, the Ki in series [1] turned out to be 64 nM.
As for `CSc1sc(C(=N)N)cc1S(=O)(=O)c1cccc(-c2ccccc2O)c1`, in series [1], the affinity corresponds to a Ki of 460 nM.
Still for that read-out and setting: as for `CSc1sc(C(=N)N)cc1S(=O)(=O)c1cccc(-c2ccc(O)cc2)c1`, the figure is 190 nM.
By solubility is commonly meant the concentration that dissolves in the medium under given conditions. A lower solubility goes with a poorly soluble substance. As usually defined, the half-life is how long it takes for the measured level to halve. In general, clearance refers to a measure of how efficiently the substance is removed, as volume per time. Low readings indicate a low capacity for elimination, high ones a high capacity for elimination. The Vd is the apparent volume that relates the amount in the body to the concentration in plasma or blood. Higher therefore signals extensive tissue distribution. In series [2], `CSc1sc(C(=N)N)cc1S(=O)(=O)c1cccc(-c2c(C)cccc2NC(=O)CCCS(C)(=O)=O)c1` registered a solubility of 35 µM (≈ 19.8 µg/mL). In series [3], this molecule had a half-life of 1.8 h. The molecule further gave a clearance in series [4] of 130 mL/min/kg. Moreover, in series [1], the Ki was found to be 14 nM. This molecule also returned a Vd in series [5] of 2.03 L/kg.
The molecule `COc1ccc(-c2cccc(S(=O)(=O)c3cc(C(=N)N)sc3SC)c2)cc1` yielded a Ki in series [1] of 350 nM.
`CSc1sc(C(=N)N)cc1S(=O)(=O)c1cccc(-c2c(C)cccc2C(=O)O)c1` returned a Ki in series [1] of 150 nM. This Ki is about 2.3-fold lower than that of the molecule before.
In the case of `COc1ccccc1-c1cccc(S(=O)(=O)c2cc(C(=N)N)sc2SC)c1`, the Ki in series [1] worked out at 610 nM.
The same measure, in the same setting: as for `COc1cccc(-c2cccc(S(=O)(=O)c3cc(C(=N)N)sc3SC)c2)c1`, the figure is 490 nM.
In series [2], `CSc1sc(C(=N)N)cc1S(=O)(=O)c1cccc(-c2c(C)cccc2NC(=O)NCCCCCC(=O)O)c1` registered a solubility of 39 µM (≈ 22.4 µg/mL). In series [3], the half-life is 0.2 h. Moreover, the inhibition at 10 µM against hERG (KCNH2) amounted to 5.8%. Further, the clearance in series [4] is 228 mL/min/kg. For the same molecule, the Ki in series [1] stood at 22 nM. Moreover, the distribution volume (Vd) in series [5] stood at 2.65 L/kg.
Turning to `CSc1sc(C(=N)N)cc1S(=O)(=O)c1cccc(-c2c(C)cccc2NC(=O)CS(C)(=O)=O)c1`, the solubility in series [2] was found to be 43 µM (≈ 23.1 µg/mL). The Ki in series [1] was determined as 120 nM.
For `CSc1sc(C(=N)N)cc1S(=O)(=O)c1cccc(-c2ccccc2CO)c1`, the Ki in series [1] was 120 nM. That is a sub-micromolar value.
Still for that read-out and setting: as for `CSc1sc(C(=N)N)cc1S(=O)(=O)c1cccc(-c2cccc(C)c2)c1`, the figure is 1850 nM; as for `CSc1sc(C(=N)N)cc1S(=O)(=O)c1cccc(-c2ccc(C)cc2)c1`, 250 nM.
In turn, `CSc1sc(C(=N)N)cc1S(=O)(=O)c1cccc(-c2ccccc2C)c1` displayed a Ki in series [1] of 30 nM.
With `CSc1sc(C(=N)N)cc1S(=O)(=O)c1cccc(-c2cccc(C)n2)c1`, in series [2], the solubility is 22 µM (≈ 8.88 µg/mL). In series [3], this molecule had a half-life of 2 h. This molecule had an inhibition at 10 µM against hERG (KCNH2) of 66%. Besides, the clearance in series [4] came out at 283 mL/min/kg. Also, the inhibition constant (Ki) in series [1] came out at 40 nM. This molecule came in with a volume of distribution (Vd) in series [5] of 15 L/kg.
As to `CSc1sc(C(=N)N)cc1S(=O)(=O)c1cccc(-c2cccc(O)c2)c1`, in series [1], affinity was put at a Ki of 150 nM.
Still for that read-out and setting: as for `CSc1sc(C(=N)N)cc1S(=O)(=O)c1cccc(-c2ccccc2Cl)c1`, the figure is 40 nM.
With `CSc1sc(C(=N)N)cc1S(=O)(=O)c1cccc(-c2c(C)cccc2NC(=O)CCCCC(=O)O)c1`, the solubility in series [2] came to 40 µM (≈ 21.8 µg/mL). The molecule further registered a Ki in series [1] of 42 nM.
Take `C=Cc1ccccc1-c1cccc(S(=O)(=O)c2cc(C(=N)N)sc2SC)c1`: in series [1], the Ki came to 140 nM.
Still for that read-out and setting: as for `CSc1sc(C(=N)N)cc1S(=O)(=O)c1cccc(Br)c1`, the figure is 360 nM.
